Laboratory results: publication PMC6114104 (International Journal for Parasitology: Drugs and Drug …, 2018)
Counter-ions that a name gives are not always drawn. Like-named read-outs stand apart in the source and are kept apart here. Marks after values point to notes of the source that are not given here.

Key:
[1] = tested on: BT cells (bovine turbinate cells); settings: uninfected BT cells, 3 days; 100 μM maximum concentration tested
[2] = tested on: S. neurona + GFP/FLUC parasites; test: Luciferase-based S. neurona growth inhibition, EC50 determination; settings: for EC50: Sarcocystis neurona; for TI (TC50/EC50): ratio of BT cell TC50 to S. neurona EC50
[3] = tested on: P. falciparum; settings: PubChem BioAssay; ref Wang et al., 2017; cited from earlier work
[4] = tested on: Cryptosporidium parvum; settings: ref Bessoff et al., 2013; cited from earlier work
[5] = tested on: T. gondii; settings: ref Dittmar et al., 2016; Wang et al., 2017; Bowden, unpublished data; cited from earlier work
[6] = horses, ref DiMaio Knych et al., 2011, cited from earlier work
[7] = tested on: S. neurona + GFP/FLUC parasites; test: microbe, parasite or virus in culture; type: cell-based, Sarcocystis neurona; settings: for Effect on S. neurona growth reflected by increases in FLUC activity: 10 μM HTS, not confirmed with secondary screening
[8] = tested on: S. neurona; settings: ref Gargala et al., 2009, cited from earlier work
[9] = tested on: S. neurona parasites; settings: ref Lindsay and Dubey, 1999; cited from earlier work
[10] = 96 h, read-out: EC50 in μM (95% CI)

Compound | EC50 [2, 10] [µM] | TI (TC50/EC50) [2] | TC50 [1] [µM] | further results
O=C(c1ccc(F)cc1)C1CCN(CCn2c(=S)[nH]c3ccccc3c2=O)CC1 [Altanserin] | 3.5 | 29 |  | TC50 in μM [1]: >100 ^a μM
C[C@H]1[C@H](OC(=O)CCC(=O)O)O[C@@H]2O[C@@]3(C)CC[C@H]4[C@H](C)CC[C@@H]1[C@@]24OO3 [Artesunate] | 3.3 | 30 | >100 | 
CN1CCCC(n2nc(Cc3ccc(Cl)cc3)c3ccccc3c2=O)CC1 (stereo not drawn) [Azelastine HCl] | 2.5 | 11 | 28 | 
CCCCCCNC(=O)n1cc(F)c(=O)[nH]c1=O [Carmofur] | 0.73 | 137 | >100 | Activity against P. falciparum [3]: active; Activity against Cryptosporidium parvum [4]: active; Activity against T. gondii [5]: active
Oc1c(Cl)cc(Cl)c2cccnc12 [Chloroxine] | 2.5 | 6 | 16 | 
CC(C)/N=c1\cc2n(-c3ccc(Cl)cc3)c3ccccc3nc-2cc1Nc1ccc(Cl)cc1 [Clofazimine] | 3.7 | 27 | >100 | 
O=C1CN(/N=C/c2ccc(-c3ccc([N+](=O)[O-])cc3)o2)C(O)=N1 [Dantrolene] | 0.065 | 800 | 52 | Peak plasma concentration ([6]; 500 mg capsules, converted): 85.95 nM; Peak plasma concentration ([6]; 500 mg capsules): 28.9 ± 21.6 ng/mL; Peak plasma concentration ([6]; 500 mg paste, converted): 112.4 nM; Peak plasma concentration ([6]; 500 mg paste): 37.8 ± 12.8 ng/mL; Time of peak plasma concentration after administration ([6]; both formulations (capsules and paste)): 3.8 h; EC50 ([2]; read-out: EC50 for S. neurona inhibition in ng/ml): 21.9 ng/mL
O=c1c(-c2ccccc2)c1-c1ccccc1 [Diphenylcyclopropenone] | 2.5 | 8 | 19 | 
CCN(CC)C(=S)SSC(=S)N(CC)CC [Disulfiram] | 0.15 |  | 20 | 
O=c1[nH]cc(F)c(=O)[nH]1 [Fluorouracil] | 0.79 | 99 | 78 | Activity against P. falciparum [3]: active; Activity against Cryptosporidium parvum [4]: active; Activity against T. gondii [5]: active
Oc1c(Cl)cc(Cl)c(Cl)c1Cc1c(O)c(Cl)cc(Cl)c1Cl [Hexachlorophene] | 2.8 | 20 | 56 | 
Cl.O=C1[C@H]2CCCC[C@H]2C(=O)N1CCCCN1CCN(c2nsc3ccccc23)CC1 [Perospirone HCl] |  | 25 | 86 | 
OCCN1CCN(CCCN2c3ccccc3Sc3ccc(Cl)cc32)CC1 [Perphenazine] | 3.3 | 4 | 14 | 
COc1cc2nc(N3CCN(C(=O)c4ccco4)CC3)nc(N)c2cc1OC [Prazosin] | 6 | 8 | 45 | 
COc1cc(NC(C)CCCN)c2ncccc2c1 (stereo not drawn) [Primaquine phosphate] | 2.2 | 21 | 47 | 
CCc1nc(N)nc(N)c1-c1ccc(Cl)cc1 [Pyrimethamine] | 3.9 | 26 | >100 | FLUC activity of treated parasites ([2]; 10 μM, measured every 2 days over 10-day incubation): severely diminished FLUC activity; EC50 ([2]; read-out: EC50 of pyrimethamine (HTS validation, Fig. 2B)): 3.22 µM
CN1CCN(CC/C=C2/c3ccccc3Sc3ccc(S(=O)(=O)N(C)C)cc32)CC1 [Thiothixene] | 6.3 | 5 | 30 | 
CCCSc1ccc2nc(NC(=O)OC)[nH]c2c1 [albendazole] |  |  |  | Effect on S. neurona growth reflected by increases in FLUC activity [7]: growth-enhancing
CC(=O)Oc1ccccc1C(=O)Nc1ncc([N+](=O)[O-])s1 [nitazoxanide] | ~12 |  |  | Reported mean 90% inhibitory activity against S. neurona, in μM ([8]; approximate conversion): approximately 6.2 μM; Reported mean 90% inhibitory activity against S. neurona [8]: 1.9 mg/L
c1ccc2[nH]c(-c3cscn3)nc2c1 [thibendazole] |  |  |  | Effect on S. neurona growth reflected by increases in FLUC activity [7]: growth-enhancing
COc1cc(Cc2cnc(N)nc2N)cc(OC)c1OC [trimethoprim] | ~19 |  |  | inhibition at 10 µM ([7]; Sarcocystis neurona, read-out: % inhibition of parasite growth in HTS): ≤ 80%; Reported EC50 for S. neurona parasites in vitro [9]: 2.5 µg/mL
Cc1ccc(-c2nc3ccc(C)cn3c2CC(=O)N(C)C)cc1 [zolpidem tartrate] |  |  |  | Effect on S. neurona growth reflected by increases in FLUC activity [7]: growth-enhancing
